Laboratory results as given in PMC6249039 (Journal of medicinal chemistry, 2018).

Target: influenza PA endonuclease (PAN) (Influenza A virus, UniProt C3W5S0, DEL52-63/E64G)
Format: biochemical, influenza A (A/California/04/2009) H1N1

SMILES	Change in activity with presence or absence of excess metal ions
Cc1cc(=O)c(O)c(C(=O)O)[nH]1 [Compound 17, 3-Hydroxy-6-methyl-4-oxo-1,4-dihydropyridine-2-carboxylic acid]	no change
Cc1cc(=O)c(O)c(C(=O)O)o1 [Compound 1, 3-Hydroxy-6-methyl-4-oxo-4H-pyran-2-carboxylic acid]	no change
